{
  "source": "patent US10766855B2",
  "about": "“Hydroxamate triterpenoid derivatives” (VIVACELL BIOTECHNOLOGY ESPANA S.L., priority 2016, dated 2020)",
  "key": {"HIF-1α": {"test_system": "HIF-1α", "test": "HIF-1α stabilization in 293T cells (Western blot)", "assay_type": "cell-based, human", "conditions": "increasing concentrations, 3 h", "method": "Stimulation of human Embryonic Kidney 293 cells with increasing concentrations of compound VII or with DFX (150 μM) during 3 h. The steady state levels of the proteins HIF-1α, PHD1, PHD2 and β-actin were determined by Western blots.\nNext, Human Embryonic Kidney 293 cells (293T) were stimulated with the increasing concentrations of compound VII or with DFX (150 μM) during 3 h. After that, proteins isolation and western blots were performed as in FIG. 3. The antibody against HIF-1α (610959) was from BD Biosciences (USA), the antibodies anti-PHD1 (ab80361) and anti-PHD2 (ab109088) were from Abcam (Cambrigde, UK), and the antibody anti-β-actin (AC-74) was purchased from Sigma-Aldrich (Saint Louis, Mo., USA)."}, "HFD mice": {"test_system": "HFD mice", "test": "High fat diet (HFD) model of diabetes and metabolic pathologies in mice", "assay_type": "in vivo, mouse", "conditions": "30 mg/kg i.p. every 24 h", "method": "High-fat diet-fed mouse is a widely used model for impaired glucose tolerance (IGT) and type 2 diabetes. Eight-week-old male C57BL/6 mice (Charles River-France) were used for experiments. Mice were maintained under controlled conditions [12 h light/dark cycle; temperature 20° C. (±2° C.) and 40-50% relative humidity] with free access to tap water and standard rodent chow ad libitum. After 1 week of acclimatization, mice were divided into two groups and fed ad libitum with a standard diet—CD- (Code U8220G10R, SAFE Diets, Augy, France) or a High-Fat diet—HFD- (D12451; Research Diets, New Brunswick, N.J.) in order to induce obesity for 15 weeks (diet-induced obesity, DIO). In order to assess the potential beneficial metabolic effects of compound VII in this model of DIO, pharmacological administration of the compound (30 mg/kg body weight) was performed by intraperitoneal (i.p.) injection every 24 h from 12th to 15th week of diet exposure. Control animals received the corresponding vehicle injections (1:1:18 Ethanol:Cremophor:Saline).\nTo ensure the effectiveness of HFD feeding regimen and assess the efficacy of compounds in terms of amelioration of the metabolic phenotype, body composition analyses of fat and lean masses were performed by QMR (quantitative magnetic resonance) using the EchoMRI™ 700 analyzer (Houston, Tex., software v. 2.0). In this sense, MRI scans were taken in three time points during the experimental period: before starting diet exposure, after 12 week of feeding regimen (coinciding with start of treatment) and at the end of experimental procedures (on the 15th week of diet exposure). Additionally, five days before sacrifice, glucose tolerance test (GTT) was performed in overnight food-deprived mice. To this end, mice were injected intraperitoneally with 2 mg of glucose/g body weight and blood glucose was measured before and 30, 60 and 120 min after injection utilizing an Accu-Chek Advantage® (Roche) glucometer. At the end of the experiment, mice were sacrificed and blood samples were collected using EDTA-coated tubes and plasma stored at −80° C. Plasma triglycerides were measured using and enzymatic colorimetric kit (QCA, Barcelona, Spain)."}, "[1]": {"test_system": "STHdhQ7/Q7 and STHdhQ111/Q111 striatal cells", "test": "3-NP-induced cytotoxicity in striatal Q7 and Q111 cells (YOYO-1)", "assay_type": "cell-based, mouse", "conditions": "6 h pre-treatment, 3-NP 10 mM 24 h; compound VII increasing concentrations, DFX 50 μM", "method": "FIG. 8. Compound VII abrogates 3-NP toxicity in Q7 and […] striatal cells. Q7 and Q111 Striatal cells were pretreated with increasing concentrations of compound VII for 6 h and then exposed to 3-NP (10 mM) for an additional 24 h, after which YOYO-1 staining was used to investigate cell death. Cell death was determined using the IncuCyte HD software and the treatment with 3-NP alone in Q111 cells was considered as 100% of cell death.\nTo investigate whether HIF activation in striatal Q7 and Q111 cells is sufficient to protect striatal neurons (provide neuroprotection), the effect of compound VII on 3-NP induced death was examined. […]\nSTHdh^Q7/Q7 and STHdh^Q111/Q111 cells (10^4 cells/well in 96-well plates) were incubated with YOYO-1 (Life Technologies) and then treated with 3-NP (10 mM) and or DFX (50 μM) as a positive control for PHDs inhibition. […] The uptake of YOYO-1 by damaged cells correlates with the increase in YOYO-1 fluorescence. Treated cells are placed in an Incucyte FLR imaging system, and the YOYO-1 fluorescence is measured after 24 h of 3-NP treatment. Following the incubation period object counting analysis was performed using the Incucyte FLR software to calculate the total number of YOYO-1 fluorescence positive cells and total DNA containing objects (end point). […]"}, "Nrf2": {"test_system": "Nrf2", "test": "Nrf2 activation/inhibition in HaCaT-ARE-Luc cells", "assay_type": "cell-based"}},
  "data": [
    {"molecule": "C=C(C)[C@@H]1CC[C@]2(C(=O)NO)CC[C@]3(C)[C@H](CC[C@@H]4[C@@]5(C)CC[C@H](O)C(C)(C)[C@@H]5CC[C@]43C)[C@@H]12", "note": "[Compound VII, (3β) 3-Hydroxy-N-hydroxy-lup-20(29)-en-28-amide]", "values": [
      {"measurement": "HIF-1α expression", "setting": "HIF-1α", "result": "stabilized HIF-1α expression"},
      {"measurement": "expression of PHD1 and PHD2", "setting": "HIF-1α", "result": "without affecting the expression of PDH1 and PDH2"},
      {"measurement": "glucose tolerance (GTT)", "setting": "HFD mice; 3 weeks", "result": "improved glucose tolerance"},
      {"measurement": "plasma levels of triglycerides", "setting": "HFD mice; 3 weeks", "result": "normalize the plasma levels of triglycerides"},
      {"measurement": "adiposity", "setting": "HFD mice; 12th to 15th week", "result": "alleviated"},
      {"measurement": "increase in Fat Mass", "setting": "HFD mice; 12th to 15th week", "result": "alleviated"},
      {"measurement": "weight gain", "setting": "HFD mice; 12th to 15th week", "result": "alleviated weight gain"},
      {"measurement": "neuroprotection to 3-NP-induced cytotoxicity (cell death)", "setting": "[1]", "result": "clearly provided a significant level of neuroprotection"},
      {"measurement": "IC50", "setting": "Nrf2", "result": "> 50", "unit": "µM"}
    ]}
  ]
}
